Reference: publication PMC11083565, “Computational Design of Novel Cyclic Peptides Endowed with Autophagy-Inhibiting Activity on Cancer Cell Lines” (International Journal of Molecular Sciences, 2024)
Like-named read-outs stand apart in the source and are kept apart here. Where a SMILES comes first, the peptide text is derived from it. Bridges are numbered along the chain shown (N, C = ends). Where no end group is shown, it is not given here. [ ]: non-standard residue; d: D form. The star is where a group is joined. d(pT) = C[C@H](OP(=O)(O)O)[C@@H](N)C(=O)O; pY = N[C@@H](Cc1ccc(OP(=O)(O)O)cc1)C(=O)O; OBn = c1ccc(CO*)cc1; Bn = c1ccc(C*)cc1

Legend:
MCF-7 cells = details: 96 h, 5 µM
[1] = test system: LC3-I and LC3-II expression in PC3 cells; test: Western blot of LC3-I / LC3-II in PC3 cells; assay type: cell-based, human
DU145 cells = assay type: cell-based, human
[2] = target: human recombinant His-tagged LC3B protein (Homo sapiens, UniProt Q9GZQ8); assay type: binding
[3] = test system: SQSTM1/p62 expression in PC3 cells; assay type: cell-based, human
A549 cells = details: 96 h, 5 µM
bladder cancer = test system: bladder cancer; design: method as in PMID 31574376; details: combination with autophagy inhibitors; ref [27]; cited from earlier work

CC(=O)N[C@@H](CC(=O)O)C(=O)N[C@@H](CCC(=O)OCc1ccccc1)C(=O)N[C@@H](C(=O)N[C@@H](CCC(=O)O)C(=O)N[C@H](Cc1ccccc1)C(=O)N[C@@H](C(=O)N[C@@H](Cc1ccc(OP(=O)(O)O)cc1)C(=O)N[C@@H](CC(C)C)C(=O)N[C@@H](CCC(=O)O)C(=O)N[C@@H]1CSSC[C@H](C(N)=O)NC(=O)[C@H](CC(=O)O)NC1=O)[C@H](C)OP(=O)(O)O)[C@H](C)OCc1ccccc1 [Pep6] (Ac-DE(OBn)[dT](Bn)E[dF][d(pT)][pY]LE[dC]D[dC]-NH2; disulfide 10-12)
cell viability MCF-7 (MCF-7 cells): 80.7%
duration of antitumoral effect (PC3 cells): more stable over time than Pep3
effect on PC3 cell viability (PC3 cells): reduction in cell viability
relative efficacy on PC3 cell viability (PC3 cells): greater efficacy of Pep6 compared to LIR2-RavZ at all doses used
effect on PNT2 cells (PNT2 cells): ineffective
LC3-I and LC3-II expression [1]: significantly reduced
LC3-II/LC3-I ratio [1]: without changing the LC3-II/LC-I ratio
LC3-II/LC3-I ratio with trehalose [1]: able to decrease the LC3-II/LC3- ratio compared to trehalose alone
effect on DU145 cell viability (DU145 cells): ineffective
Kd compared with LIR2-RavZ [2]: about three times lower
p62 expression [3]: significantly increased
cell viability A549 (A549 cells): 76.7%

Cn1cnc(N)c2ncnc1-2 [Pep 3-MA, 3-methyladenine, reference compound]
LC3-I and LC3-II expression ([1]; PC3, 3-MA 1 mM, compared with Pep3 effect): The same effect on LC3-I and LC3-II expression

CNC(=O)c1ccc(N2C(=S)N(c3ccc(C#N)c(C(F)(F)F)c3)C(=O)C2(C)C)cc1F [enzalutamide]
apoptosis of bladder cancer (bladder cancer): effectively induced bladder cancer apoptosis in vitro and in vivo

DIDEFDLLEGDE [LIR2-RavZ, reference compound]
cell viability MCF-7 (MCF-7 cells): 85.4%
cell viability A549 (A549 cells): 81.1%
